Data taken from PubChem BioAssay AID1259407 (Chemical Carcinogenesis Research Information System (CCRIS), 2018).
Calls of active or inactive are those of the source. How the calls were made is not given here.

Tested on: CCRIS mutagenicity, Ames/micronucleus/aberration tests
Test: CCRIS mutagenicity studies
[1] = Test System: AMES SALMONELLA TYPHIMURIUM, Strain/Indicator: TA98, Metabolic Activation: NONE, Method: STANDARD PLATE
[2] = Test System: AMES SALMONELLA TYPHIMURIUM, Strain/Indicator: TA98, Metabolic Activation: RAT, LIVER, S-9, AROCLOR 1254, Method: STANDARD PLATE
[3] = Test System: AMES SALMONELLA TYPHIMURIUM, Strain/Indicator: TA100, Metabolic Activation: NONE, Method: STANDARD PLATE
[4] = Test System: AMES SALMONELLA TYPHIMURIUM, Strain/Indicator: TA100, Metabolic Activation: RAT, LIVER, S-9, AROCLOR 1254, Method: STANDARD PLATE
[5] = Test System: AMES SALMONELLA TYPHIMURIUM, Strain/Indicator: TA1535, Metabolic Activation: NONE, Method: STANDARD PLATE
[6] = Test System: MOUSE LYMPHOMA, Strain/Indicator: L5178Y (TK+/TK-), Metabolic Activation: NONE, Method: SUSPENSION/PLATE
[7] = Test System: AMES SALMONELLA TYPHIMURIUM, Strain/Indicator: TA98, Metabolic Activation: NONE, Method: PREINCUBATION
[8] = Test System: AMES SALMONELLA TYPHIMURIUM, Strain/Indicator: TA100, Metabolic Activation: NONE, Method: PREINCUBATION

## Cc1cc(S(=O)(=O)O)ccc1N
Test System: AMES SALMONELLA TYPHIMURIUM, Strain/Indicator: TA98, Metabolic Activation: HAMSTER, LIVER, S-9, AROCLOR 1254, Method: STANDARD PLATE
  mutagenic call: inactive; negative
[1]
  mutagenic call: inactive; negative
[2]
  mutagenic call: inactive; negative
Test System: AMES SALMONELLA TYPHIMURIUM, Strain/Indicator: TA100, Metabolic Activation: HAMSTER, LIVER, S-9, AROCLOR 1254, Method: STANDARD PLATE
  mutagenic call: inactive; negative
[3]
  mutagenic call: inactive; negative
[4]
  mutagenic call: inactive; negative
Test System: AMES SALMONELLA TYPHIMURIUM, Strain/Indicator: TA1535, Metabolic Activation: HAMSTER, LIVER, S-9, AROCLOR 1254, Method: STANDARD PLATE
  mutagenic call: inactive; negative
[5]
  mutagenic call: inactive; negative
Test System: AMES SALMONELLA TYPHIMURIUM, Strain/Indicator: TA1535, Metabolic Activation: RAT, LIVER, S-9, AROCLOR 1254, Method: STANDARD PLATE
  mutagenic call: inactive; negative
Test System: AMES SALMONELLA TYPHIMURIUM, Strain/Indicator: TA1537, Metabolic Activation: HAMSTER, LIVER, S-9, AROCLOR 1254, Method: STANDARD PLATE
  mutagenic call: inactive; negative
Test System: AMES SALMONELLA TYPHIMURIUM, Strain/Indicator: TA1537, Metabolic Activation: NONE, Method: STANDARD PLATE
  mutagenic call: inactive; negative
Test System: AMES SALMONELLA TYPHIMURIUM, Strain/Indicator: TA1537, Metabolic Activation: RAT, LIVER, S-9, AROCLOR 1254, Method: STANDARD PLATE
  mutagenic call: inactive; negative
Test System: AMES SALMONELLA TYPHIMURIUM, Strain/Indicator: TA1538, Metabolic Activation: HAMSTER, LIVER, S-9, AROCLOR 1254, Method: STANDARD PLATE
  mutagenic call: inactive; negative
Test System: AMES SALMONELLA TYPHIMURIUM, Strain/Indicator: TA1538, Metabolic Activation: NONE, Method: STANDARD PLATE
  mutagenic call: inactive; negative
Test System: AMES SALMONELLA TYPHIMURIUM, Strain/Indicator: TA1538, Metabolic Activation: RAT, LIVER, S-9, AROCLOR 1254, Method: STANDARD PLATE
  mutagenic call: inactive; negative
[6]
  mutagenic call: inactive; negative. reevaluation of results: negative
Test System: MOUSE LYMPHOMA, Strain/Indicator: L5178Y (TK+/TK-), Metabolic Activation: RAT, LIVER, S-9, AROCLOR 1254, Method: SUSPENSION/PLATE
  mutagenic call: active; positive. reevaluation of results: positive

## COC(=O)c1ccccc1C(=O)OC
End Point: IN VITRO CHROMOSOMAL ABERRATIONS, Test System: CHO-LB CELLS, Metabolic Activation: NONE
  mutagenic call: inactive; negative
End Point: IN VITRO CHROMOSOMAL ABERRATIONS, Test System: CHO-LB CELLS, Metabolic Activation: RAT, LIVER, S-9, AROCLOR 1254
  mutagenic call: inactive; negative
Test System: AMES SALMONELLA TYPHIMURIUM, Strain/Indicator: TA98, Metabolic Activation: HAMSTER, LIVER, S-9, AROCLOR 1254 (10%), Method: PREINCUBATION
  mutagenic call: inactive; negative
[7]
  mutagenic call: inactive; negative
Test System: AMES SALMONELLA TYPHIMURIUM, Strain/Indicator: TA98, Metabolic Activation: RAT, LIVER, S-9, AROCLOR 1254 (10%), Method: PREINCUBATION
  mutagenic call: inactive; negative
Test System: AMES SALMONELLA TYPHIMURIUM, Strain/Indicator: TA100, Metabolic Activation: HAMSTER, LIVER, S-9, AROCLOR 1254 (10%), Method: PREINCUBATION
  mutagenic call: inactive; negative
[8]
  mutagenic call: inactive; negative
Test System: AMES SALMONELLA TYPHIMURIUM, Strain/Indicator: TA100, Metabolic Activation: RAT, LIVER, S-9, AROCLOR 1254 (10%), Method: PREINCUBATION
  mutagenic call: inactive; negative
[4]
  mutagenic call: inactive; negative
Test System: AMES SALMONELLA TYPHIMURIUM, Strain/Indicator: TA100, Metabolic Activation: S-9, Method: STANDARD PLATE
  mutagenic call: inactive; negative
Test System: AMES SALMONELLA TYPHIMURIUM, Strain/Indicator: TA1535, Metabolic Activation: HAMSTER, LIVER, S-9, AROCLOR 1254 (10%), Method: PREINCUBATION
  mutagenic call: inactive; negative
Test System: AMES SALMONELLA TYPHIMURIUM, Strain/Indicator: TA1535, Metabolic Activation: NONE, Method: PREINCUBATION
  mutagenic call: inactive; negative
[5]
  mutagenic call: inactive; negative
Test System: AMES SALMONELLA TYPHIMURIUM, Strain/Indicator: TA1535, Metabolic Activation: RAT, LIVER, S-9, AROCLOR 1254 (10%), Method: PREINCUBATION
  mutagenic call: inactive; negative
Test System: AMES SALMONELLA TYPHIMURIUM, Strain/Indicator: TA1535, Metabolic Activation: S-9, Method: STANDARD PLATE
  mutagenic call: inactive; negative
Test System: AMES SALMONELLA TYPHIMURIUM, Strain/Indicator: TA1537, Metabolic Activation: HAMSTER, LIVER, S-9, AROCLOR 1254 (10%), Method: PREINCUBATION
  mutagenic call: inactive; negative
Test System: AMES SALMONELLA TYPHIMURIUM, Strain/Indicator: TA1537, Metabolic Activation: NONE, Method: PREINCUBATION
  mutagenic call: inactive; negative
Test System: AMES SALMONELLA TYPHIMURIUM, Strain/Indicator: TA1537, Metabolic Activation: RAT, LIVER, S-9, AROCLOR 1254 (10%), Method: PREINCUBATION
  mutagenic call: inactive; negative
[6]
  mutagenic call: inactive; negative
Test System: MOUSE LYMPHOMA, Strain/Indicator: L5178Y (TK+/TK-), Metabolic Activation: RAT LIVER S-9, Method: SUSPENSION/PLATE
  mutagenic call: active; positive

## CCOCC(=O)O
Test System: AMES SALMONELLA TYPHIMURIUM, Strain/Indicator: TA97A, Metabolic Activation: NONE, Method: STANDARD PLATE
  mutagenic call: inactive; negative
Test System: AMES SALMONELLA TYPHIMURIUM, Strain/Indicator: TA97A, Metabolic Activation: RAT, LIVER, S-9, AROCLOR 1254, Method: STANDARD PLATE
  mutagenic call: inactive; negative
[1]
  mutagenic call: inactive; negative
[2]
  mutagenic call: inactive; negative
[3]
  mutagenic call: inactive; negative
[4]
  mutagenic call: inactive; negative
Test System: AMES SALMONELLA TYPHIMURIUM, Strain/Indicator: TA102, Metabolic Activation: NONE, Method: STANDARD PLATE
  mutagenic call: inactive; negative
Test System: AMES SALMONELLA TYPHIMURIUM, Strain/Indicator: TA102, Metabolic Activation: RAT, LIVER, S-9, AROCLOR 1254, Method: STANDARD PLATE
  mutagenic call: inactive; negative

## CCC(=O)N(O)c1ccc(-c2ccccc2)cc1
[7]
  mutagenic call: inactive; negative
Test System: AMES SALMONELLA TYPHIMURIUM, Strain/Indicator: TA98, Metabolic Activation: RAT, LIVER, CYTOSOL, Method: PREINCUBATION
  mutagenic call: inactive; negative
Test System: AMES SALMONELLA TYPHIMURIUM, Strain/Indicator: TA98, Metabolic Activation: RAT, LIVER, MICROSOMES, Method: PREINCUBATION
  mutagenic call: active; positive

## [Cl][Ga]([Cl])[Cl]
[7]
  mutagenic call: inactive; negative
Test System: AMES SALMONELLA TYPHIMURIUM, Strain/Indicator: TA98, Metabolic Activation: RAT, LIVER, S-9 (10%), Method: PREINCUBATION
  mutagenic call: inactive; negative
[8]
  mutagenic call: inactive; negative
Test System: AMES SALMONELLA TYPHIMURIUM, Strain/Indicator: TA100, Metabolic Activation: RAT, LIVER, S-9 (10%), Method: PREINCUBATION
  mutagenic call: inactive; negative

## CC(=O)Oc1ccc2c(c1)C1(C)OOC1(C)O2 (stereo not drawn)
[8]
  mutagenic call: active; positive
